Assays:
VCAM in HUVEC cells = assay: cell surface expression of VCAM in HUVEC; assay type: cell-based, human; details: protocol similar to Example 20; FIG. 17
Method: Drug inhibitory activity can also be measured by determining levels of vascular cell adhesion molecule (VCAM) in stimulated cells. Early passage human umbilical vein endothelial cells (HUVEC) (obtained from commercial suppliers such as Cell Systems, Inc. or Clonetics) are cultured in media (e.g., Hepes buffered media, Cell Systems) containing 10% fetal bovine serum, and supplemented with a stimulating agent, such as fibroblast growth factor (acidic FGF, Cell Systems, Inc.) or TNF. The cells are plated into wells of a microtiter plate (e.g., 5×10^4 per well) and allowed to incubate at 37° C. for 72 hrs. The resting cells are removed (e.g., 20-30 min treatment with 0.4% EDTA), washed in media (e.g., phosphate buffered saline plus 0.1% bovine serum albumin with 0.01% sodium azide) and labeled on ice with a monoclonal antibody ("first antibody") recognizing human VCAM (e.g., 1 μg of a murine monoclonal antibody recognizing human VCAM, Genzyme). After 60 min on ice, the cells are washed (preferably twice) with cold wash media and incubated with an antibody that recognizes the first antibody (e.g., 1 μg of goat anti-mouse IgG conjugated with phycoerythrin, CalTag, Inc.). After 30 min on ice, the cells are washed twice and analyzed on a flow cytometer (Coulter Elite®) at appropriate emission and excitation wavelengths (e.g., for phycoerytlrin use excitation at 488 nm and emission at 525 nm).
The cells were stimulated with human TNF-α (20 ng/ml) for 20 hours and then stained for immunofluorescence using a monoclonal antibody recognizing VCAM, followed by a goat anti-mouse antibody conjugated to phycoerythrin. The cells were analyzed for antibody binding using flow cytometry. […] 1521 and 1522 at the indicated drug concentrations.
This example was used to investigate inhibition of vascular cell adhesion molecule (VCAM) expression on HUVEC by inventive compound no. 2525. VCAM expression by endothelial cells is an early event in atherogenesis and multiple sclerosis, among other various autoimmune diseases. FIG. 17, a plot of percent surface expression versus concentration of compound no.

[1] = test system: THP-1 cells / TNFα-activated HUVEC; assay: THP-1 cell adhesion to TNFα-activated HUVEC; assay type: cell-based, human; details: 0.1 to 10 μM
Source text: This example illustrates inhibitive activity of inventive compound no. 2525 on THP-1 cell adhesion to TNFα-activated HUVEC. In an investigative assay, representative of the protocol employed in Example 23, HUVEC were stimulated with TNF α instead of IL-1β. As shown by results reported in FIG. 15, non-stimulated background adherence was approximately 1000 relative units, increasing to approximately 3000 under TNF stimulation.

[2] = test system: THP-1 cells / IL-1β-activated HUVEC; assay: THP-1 cell adhesion to IL-1β-activated HUVEC; assay type: cell-based, human; details: IL-1β 10 ng/ml, 8 hours; between 1.0 and 10 μM
Method: This example illustrates inhibitive activity of inventive compound no. 2525 on THP-1 cell adhesion to IL-1β-activated HUVEC. In an investigative assay, HUVEC were stimulated with IL-1β (10 ng/ml), both in the absence and presence of varying concentrations of inventive compound for 8 hours in a 96-well microtiter plate. In the wellplate, human monocytic leukemia cell line THP-1 cells were added at 50,000 cells per well. The THP-1 cells were pre-incubated with BCECF, a fluorescence dye that can be use to measure cell number using a fluorescence plate reader. After 10 minutes at 37° C., the microtiter plate was inverted and spun at 900 rpm. The remaining adhering THP-1 cells were then analyzed. […] The inventive compound no.

ICAM in HUVEC cells = assay: cell surface expression of ICAM in HUVEC; assay type: cell-based; details: human TNF-α 20 ng/ml, 20 hours
Method: 2525 to inhibit cell surface expression of ICAM in HUVEC cells. The cells were stimulated with human TNF-α (20 ng/ml) for 20 hours and then stained for immunofluorescence using a monoclonal antibody recognizing ICAM, followed by a goat anti-mouse antibody conjugated to phycoerythrin. The cells were analyzed for antibody binding using flow cytometry. FIG. 16 reports % surface expression, determined by analysis of mean fluorescence intensity of cells analyzed by flow cytometry, for compound no. 2525, at concentration shown. As reported, compound no.

[3] = U.S. Pat. Nos. 4,515,795 and 4,576,947; cited from earlier work
[4] = test system: polymorphonuclear leukocytes; details: in response to a stimulator of chemotaxis; U.S. Pat. No. 4,636,507; cited from earlier work
[5] = test system: PBMC (peripheral blood mononuclear cells); assay: two-way mixed lymphocyte reaction; assay type: cell-based, human; details: Example 28; protocol similar to Example 10
Source text: Various in vitro assays can be used to measure effects of the inventive compounds to module immune activity and have antitumor activity using a variety of cellular types. For example, a mixed lymphocyte reaction (MLR) provides a valuable screening tool to determine biological activity of each inventive compound. In the MLR, PBMCs (peripheral blood mononuclear cells) are obtained by drawing whole blood from healthy volunteers in a heparinized container and diluted with an equal volume of hanks balanced salt solution (HBSS). This mixture is layered on a sucrose density gradient, such as a Ficoll-Hypaque® gradient (specific gravity 1.08), and centrifuged at 1000×g for 25 minutes at room temperature or cooler. PBMC are obtained from a band at a plasma-Ficoll interface, separated and washed at least twice in a saline solution, such as HBSS. Contaminating red cells are lysed, such as by ACK lysis for 10 min at 37° C., and the PBMCs are washed twice in HBSS. The pellet of purified PBMCs is resuspended in complete medium, such as RPMI 1640 plus 20% human inactivated serum. Proliferative response of PBMC to allogeneic stimulation is determined in a two-way MLR performed in a 96-well microtiter plate. Briefly, approximately 10^5 test purified PBMC cells in 200 μl complete medium are co-cultured with approximately 10^5 autologous (control culture) or allogeneic (stimulated culture) PBMC cells, wherein the allogeneic cells are from HLA disparate individuals. Varying doses of compounds (drug) are added at the time of addition of cells to the microtiter plate. The cultures are incubated for 6 days at 37° C. in a 5% CO2 atmosphere. At the conclusion of the incubation tritiated thymidine is added (for example, 1 μCi/well of 40 to 60 Ci/mmole) and proliferation determined by liquid scintillation. counting.
Example 10 illustrates a mixed lymphocyte reaction of inventive compounds nos. 1521 and 1522 (see above for chemical name and structure). […] Both compounds nos. […]

murine thymocyte = assay: thymocyte proliferation stimulated by ConA and IL-2; assay type: cell-based, murine (female Balb/C mice); details: ConA, IL-2 15 U/ml; FIG. 18 (IC50 curve)
Method: A thymocyte costimulator assay is conducted to evaluate the inventive compounds to inhibit activation and proliferation of thymocytes caused by stimulation with Con A and interleukin-1 (IL-1), or […]. Thymuses are obtained from mice (e.g., female Balb/C mice) and the thymuses are removed and dissociated into culture media (e.g., RPMI 1640 without serum supplementation). The dissociated thymus tissue and cell suspension is transferred to centrifuge tubes and allowed to settle, washed with HBSS and resuspended in serum-supplemented culture media (e.g., RPMI 1640 with 10% fetal calf serum). Any contaminating red cells are lysed, and viable cells are resuspended and counted. Thymocytes are plated (e.g., 96-well plates at a density of 2×10^5 cells/well) and a stimulating agent, such as Con A, IL-1 (e.g., IL-1α) or IL-2 is added to the well. The cells are incubated for 4 days at 37° C. On the fourth day, the cells are pulsed with tritiated thymidine and cell proliferation determined. […]
1522 on inhibition of thymocyte proliferation stimulated by ConA and interleukin-2 (IL-2) (20 ng/ml). Compound no. […]
Thymuses, obtained from normal, female Balb/C mice, were dissociated and plated into 96-well plates at a density of 2×10^5 cells/well. […] The amount of tritiated thymidine dye incorporated by the harvested cells was determined in a liquid scintillation counter. […]

CC(CCCCCCCCCCn1c(=O)c2c(ncn2C)n(C)c1=O)=NO [compound 2525]
inhibition of VCAM surface expression (VCAM in HUVEC cells): able to inhibit surface expression of VCAM | inhibition of THP-1 adhesion to TNFα-activated HUVEC [1]: significantly inhibited THP-1 adhesion | inhibition of THP-1 adhesion to IL-1β-activated HUVEC [2]: significantly inhibited THP-1 adhesion | inhibition of ICAM surface expression (ICAM in HUVEC cells): inhibited ICAM surface expression

CC(O)CCCCn1c(=O)c2c(ncn2C)n(C)c1=O (centres unmarked) [M1, 1-(5-hydroxyhexyl)-3,7-dimethylxanthine]
cerebral blood flow [3]: increasing cerebral blood flow | stimulation of chemotaxis in polymorphonuclear leukocytes [4]: stimulate chemotaxis in polymorphonuclear leukocytes

CC(CCCCCCCCCn1c(=O)c2c(ncn2C)n(C)c1=O)=NO [compound 2514]
proliferative response of lymphocytes in mixed lymphocyte reaction [5]: showed activity in this immune modulating activity assay procedure | inhibition of thymocyte proliferation, ConA + IL-2 (murine thymocyte): inhibit thymocyte proliferation and activation
